The values that follow come from ChEMBL document CHEMBL3227956 (J Med Chem, 1979).

Each structure is given as a SMILES string. Bounds are passed on as bounds.

Data set [1] is described as follows: Hydrolytic stability in D2O/Me2SO-d6 assessed as formation of 3-ammonio-2-bromopropyl phenylphosphonate at 37 degC after 24 hrs by NMR analysis. The class given is physicochemical.
Data set [2] has as its system L1210. The data set is described as follows: Antitumor activity against mouse L1210 cells allografted in mouse assessed as increase in survival rate at 500 mg/kg, ip administered on day 1 measured on day 30 relative to control. The class given is functional. The settings on record: route intraperitoneal.
Data set [3] concerns Mus musculus. Description: Toxicity in mouse allografted with mouse L1210 cells assessed as survival rate at 500 mg/kg, ip administered on day 1 measured on day 30 relative to control. The class given is organism-based. On the set-up: dose 500 mg/kg, route intraperitoneal. The settings on record: in vivo.
Data set [4] relates to Mus musculus. Description: Toxicity in mouse allografted with mouse L1210 cells assessed as survival rate at 250 mg/kg, ip administered on day 1 measured on day 30 relative to control. The class given is organism-based. On the set-up: dose 250 mg/kg, route intraperitoneal. The settings on record: in vivo.
Data set [5] in a line: Hydrolytic stability in deuteriochloroform. The class given is physicochemical.
A short description of data set [6]: Hydrolytic stability in CDCl3 assessed as formation of 3-ammonio-2-bromopropyl phenylphosphonate measured within 2 hrs by NMR analysis. The class given is physicochemical.
The subject of data set [7] is Mus musculus. The data set is described as follows: Toxicity in mouse allografted with mouse L1210 cells assessed as survival rate at 150 mg/kg, ip administered on day 1 measured on day 30 relative to control. The class given is organism-based. On the set-up: dose 150 mg/kg, route intraperitoneal. The settings on record: in vivo.
Data set [8] deals with L1210. Description: Antitumor activity against mouse L1210 cells allografted in mouse assessed as increase in survival rate at 150 mg/kg, ip administered on day 1 measured on day 30 relative to control. Type of data set: functional. The settings on record: route intraperitoneal.
Data set [9] relates to L1210. The data set is described as follows: Antitumor activity against mouse L1210 cells allografted in mouse assessed as increase in survival rate at 62.5 mg/kg, ip administered on day 1 measured on day 30 relative to control. The class given is functional. The settings on record: route intraperitoneal.
The test system of data set [10] is Mus musculus. The data set is described as follows: Toxicity in mouse allografted with mouse L1210 cells assessed as survival rate at 62.5 mg/kg, ip administered on day 1 measured on day 30 relative to control. Type of data set: organism-based. On the set-up: dose 62.5 mg/kg, route intraperitoneal. Particulars: in vivo.
Data set [11] is described as follows: Toxicity in mouse allografted with mouse ADJ/PC6 cells.
The subject of a further data set is ADJ/PC6. Description: Antitumor activity against mouse ADJ/PC6 cells allografted in mouse.
The test system of data set [12] is W256. Description: Cytotoxicity against rat Walker 256 cells assessed as growth inhibition in absence of microsomal activation. The settings on record: W256, read-out: ID50.
The nature of data set [13]: Therapeutic index, ratio of LD50 for mouse allografted with mouse ADJ/PC6 cells to ED90 for mouse ADJ/PC6 cells allografted in mouse.
The test system of data set [14] is W256. Description: Cytotoxicity against rat Walker 256 cells assessed as growth inhibition in presence of microsomal activation. Particulars: W256, read-out: ID50.

With `O=P1(Oc2ccccc2)NCC(Br)CO1` (stereo not drawn), the Stability result in data set [1] was “Stable”.

In general, T/C refers to the result in the treated group divided by that in the control group, in per cent. For the compound `O=P12OCCCN1CCN2CCCl` (stereo not drawn), the T/C in the data set with L1210 [2] is given as 105%. Further, the Activity entry with Mus musculus [3] was “Non-toxic”.

For `[O-][P@@+]1(c2ccccc2)NC[C@@H](Br)CO1` (single isomer, unassigned; fast eluting), the Activity entry in the data set on Mus musculus [4] is recorded as “Non-toxic”.

On to `O=P1(c2ccccc2)NCC(Br)CO1` (stereo not drawn), for which the Stability entry was “Stable” in [5], “Unstable” in data set [1] and “Unstable” in data set [6].

Regarding `[O-][P@@+]1(Oc2ccccc2)NC[C@H](Br)CO1` (racemic), the Activity result in the data set on Mus musculus [7] was “Non-toxic”. In addition, the T/C with L1210 [8] worked out at 113%.

`O=P1(N2CC2)OCCCN1CCCl` (stereo not drawn): in the data set on L1210 [9], the T/C amounted to 110%.

With `[O-][P@@+]1(Oc2ccccc2)NC[C@@H](Br)CO1` (single isomer, unassigned; fast eluting), the Activity result in the data set with Mus musculus [10] is “Non-toxic”. Also, in the data set with L1210 [9], the T/C is 107%.

The term LD50 denotes the dose at which mortality reaches 50%. Low values mean a more toxic substance, high ones a less toxic substance. For the compound `O=P1(N(CCCl)CCCl)NCCCO1` (racemic) [CYCLOPHOSPHAMIDE ANHYDROUS], the LD50 in [11] turned out to be 450 mg/kg. For the same compound, the ED90 with ADJ/PC6 was found to be 4.75 mg/kg. Besides, in the data set on Mus musculus [4], the Activity entry was “Non-toxic”. Besides, the IC50 in the data set with W256 [12] is > 500 µg/mL; in the data set with W256 [14] it was 0.5 µg/mL. Moreover, the selectivity ratio in [13] amounted to 95.
